The record followed here is patent US12559769B2, “Methods and compositions for the activation of tumor cytotoxicity via human gamma-delta t-cells” (priority 2017, dated 2026).

The test system of this assay is Vγ9Vδ2 T cells. Description: Activation of Vγ9Vδ2 T cells (TNF-α, flow cytometry) by THP-1 monocytic leukemia cells co-cultured with expanded PBMC. In kind it is cell-based, human. As for the experimental part: THP-1 cells (2×10^5 cells) were transduced with LV-control or LV-miR30 FDPS #1 (SEQ ID NO: 68) for 7 days. Cells were treated with or without 1 μM zoledronic acid. After 24 hours, the transduced THP-1 cells were co-cultured for 4 hours with 2×10^5 PBMC cells in 5 mL round-bottom tubes. The PBMC cells had been pre-stimulated with zoledronic acid plus IL-2 for at least 11 days to expand Vγ9Vδ2 T cells. After staining for Vγ9Vδ2 and TNF-α using fluorophore-conjugated anti TCR-Vδ2 and anti-TNF-α antibody, cells were analyzed via flow cytometry. Live cells were gated; Vδ2+ and TNF-α+ cells were identified on a dot blot. The activated cytotoxic Vγ9Vδ2 T cells appeared in the upper right quadrant of the flow cytograms. Without zoledronic acid, LV-control stimulated 2.44% of TNF-α expressing Vγ9Vδ2 T cells and LV-miR30 FDPS #1 (SEQ ID NO: 68) stimulated 28.4%. With zoledronic acid treatment, LV-control stimulated 23.8% of TNF-α expressing Vγ9Vδ2 T cells and LV-miR30 FDPS #1 (SEQ ID NO: 68) stimulated 61.4%.
THP-1 cells were transduced with LV-control or LV-FDPS shRNA #4 (SEQ ID NO: 4) or Lv-GGPS1 shRNA #1 (SEQ ID NO: 70) for 3 days. Two days after transduction, cells were treated with or without 1 μM zoledronic acid. After 24 hours, the transduced THP-1 cells were co-cultured for 4 hours with 5×10^5 PBMC cells in a round bottom 96 well plate. The PBMC cells had been pre-stimulated with zoledronic acid plus IL-2 for at least 11 days to expand Vγ9Vδ2 T cells. After staining for Vγ9Vδ2 and TNF-α using fluorophore-conjugated anti TCR-Vδ2 and anti-TNF-α antibody, cells were analyzed via flow cytometry. Live cells were gated; Vδ2+ and TNF-α+ cells were identified on a dot blot. The activated cytotoxic Vγ9Vδ2 T cells appeared in the upper right quadrant of the flow cytograms. Without zoledronic acid, LV-control stimulated 1.33% of TNF-α expressing Vγ9Vδ2 T cells whereas Lv-FDPS shRNA #4 (SEQ ID NO: 4) stimulated 2.49%, Lv-GGPS1 #1 shRNA (SEQ ID NO: 70) stimulated 1.22%, and both combined stimulated 1.91%. With zoledronic acid treatment, Lv-control stimulated 5.74% of TNF-α expressing Vγ9Vδ2 T cells, whereas Lv-FDPS shRNA #4 (SEQ ID NO: 4) stimulated 10.8%, Lv-GGPS1 shRNA #1 (SEQ ID NO: 70) stimulated 4.5%, and both combined stimulated 11.5%.
ZA is a small molecule inhibitor of squalene synthase in the pathway committed to sterol synthesis. THP-1 cells were treated with either the FDPS inhibitor Zol (10 μM), the famesyl transferase inhibitor FTI (10 μM), or ZA (50 μM) for 24 hours. THP-1 cells (2.5×10^5) were co-cultured with 2.5×10^5 PBMC cells in a round bottom 96 well plate for 5 hours. The PBMC cells had been pre-stimulated with zoledronic acid plus IL-2 for at least 11 days to expand Vγ9Vδ2 T cells. After staining for Vγ9Vδ2 and TNF-α using fluorophore-conjugated anti TCR-Vδ2 and anti-TNF-α antibody, cells were analyzed via flow cytometry. Live cells were gated; Vδ2+ and TNF-α+ cells were identified on a dot blot. The activated cytotoxic Vγ9Vδ2 T cells appeared in the upper right quadrant of the flow cytograms. Untreated cells stimulated 3.08% of TNF-α expressing Vγ9Vδ2 T cells, whereas zoledronic acid treatment stimulated 40.1%, FT1277 treatment stimulated 11.7%, and zaragozic acid stimulated 2.13%.
In general terms: In flow cytometry, cells or beads pass a laser one at a time.

Where [1] appears, read: Example 24, FIG. 28, THP-1 cells treated 10 μM for 24 hours, untreated cells 3.08%.

For the molecule `COC(=O)[C@H](CCSC)NC(=O)c1ccc(NC[C@@H](N)CS)cc1-c1ccccc1` [FT1277], the “percent of TNF-α expressing Vγ9Vδ2 T cells” value under setting [1] was found to be 11.7%.

With `C=C(CC[C@]12O[C@H](C(=O)O)[C@@](O)(C(=O)O)[C@](C(=O)O)(O1)[C@H](OC(=O)/C=C/[C@@H](C)C[C@@H](C)CC)[C@H]2O)[C@@H](OC(C)=O)[C@H](C)Cc1ccccc1` [zaragozic acid], the “percent of TNF-α expressing Vγ9Vδ2 T cells” value (Example 24, FIG. 28, THP-1 cells treated 50 μM for 24 hours, untreated cells 3.08%) was 2.13%.

As to `O=P(O)(O)C(O)(Cn1ccnc1)P(=O)(O)O` [zoledronic acid], the “percent of TNF-α expressing Vγ9Vδ2 T cells” value (Example 17, LV-control transduced THP-1 cells, 1 μM zoledronic acid) came out at 23.8%; the “percent of TNF-α expressing Vγ9Vδ2 T cells” value (Example 21, Lv-control transduced THP-1 cells, 1 μM zoledronic acid) worked out at 5.74%; the “percent of TNF-α expressing Vγ9Vδ2 T cells” value under setting [1] is reported as 40.1%.
